Like-named read-outs stand apart in the source and are kept apart here.
Assays:
[1] = system: adult human; experiment: LD50, adult human (equivalent / reported); conditions: 143 lb (65 kg) adult human
[2] = system: mouse; conditions: cited from earlier work
[3] = system: 25 different bacterial species, 20 different Listeria monocytogenes cultivars, three different fungi; conditions: singly or in combination, in the percentages listed by the ISO; cited from earlier work

Structure (SMILES)	LD50 equivalent for adult human ([1]; intraperitoneally injected)	LD50 equivalent for adult human ([1]; intravenously injected)	LD50 ([2]; intraperitoneal administration)	LD50 ([2]; intravenous)	Bioactivity (antibacterial, antifungal, anti-oxidant) [3]
CCC(C)CC(C)N (stereo not drawn) [methylhexaneamine, Methylhexaneamine]	978 milligrams	206 mg	185 mg/kg	39 mg/kg	
CC(C)=CCC/C(C)=C/CO [geraniol]					very potent
CC(C)=CCCC(C)CCO (stereo not drawn) [citronellol]					very potent

— patent US20130216634A1, “Herbal Supplement Prepared From Pelargonium Citronellum” (priority 2011, published 2013)
